Values quoted from earlier work in patent US9636319B1, “Fumarate ester dosage forms” (priority 2015, dated 2017).
Structures can show the parent of a compound that is named as a salt.

How the values were obtained:
[1] = system: Nuclear factor (erythroid-derived 2)-like 2 (Nrf2) pathway; details: in vitro and in vivo in animals and humans
[2] = system: Human plasma protein; details: independent of concentration

quantifiability in plasma following oral administration (human, in vivo, po)	Human plasma protein binding [2]	Tmax without meal (MMF in plasma, before the delay by a meal) [h]	Tmax with meal (MMF in plasma, high-fat, high-calorie meal) [h]	median Tmax of MMF ([…]) [h]	effect of a meal on AUC (high-fat, high-calorie meal)	decrease of Cmax by a meal (high-fat, high-calorie meal, MMF in plasma) [%]	terminal half-life (human, in vivo)	involvement of the cytochrome P450 (CYP) system in metabolism (metabolism through the tricarboxylic acid (TCA) cycle)	Structure (SMILES)	Nrf2 pathway activation [1]	dose dependence of Cmax and AUCoverall (dose range 120 mg to 360 mg)	reduction in the incidence of flushing (fed / postprandial state)	circulating MMF at 24 hours (human, in vivo)
not quantifiable									COC(=O)/C=C/C(=O)OC [DMF, dimethyl fumarate]	activate			
	27-45%	2.0	5.5	2 to 2.5	did not affect	40	approximately 1 hour	no involvement	COC(=O)/C=C/C(=O)O [MMF, monomethyl fumarate]		increased approximately dose proportionally	approximately 25%	no circulating MMF is present at 24 hours in the majority of individuals
